What is called ED50 is the midpoint of the dose-response relation.

The values below come from ChEMBL document CHEMBL3872240, “Simple N,N-dimethyl phenylsulfonamides show potent anticonvulsant effect in two standard epilepsy models” (Bioorg Med Chem Lett, 2017).

The subject of data set [1] is Mus musculus. Briefly: Neurotoxicity in Carworth Farm1 mouse assessed as somnolence up to 100 mg/kg, ip. Type of data set: toxicity, organism-based. To be noted: in vivo.
The subject of data set [2] is Mus musculus. Description: Neurotoxicity in Carworth Farm1 mouse assessed as muscle relaxation up to 100 mg/kg, ip. Type of data set: toxicity, organism-based. To be noted: in vivo.
For data set [3], the system named is Mus musculus. Briefly: Neurotoxicity in Carworth Farm1 mouse assessed as sedation up to 100 mg/kg, ip. To be noted: in vivo. The class given is toxicity, organism-based.
In data set [4] the test system is Mus musculus. Briefly: Anticonvulsant activity in Carworth Farm1 mouse assessed as protection against maximal electroshock-induced seizures at 25 mg/kg, ip administered 30 mins prior to 60-Hz current induction. Type of data set: functional, organism-based.
Data set [5] deals with Mus musculus. Briefly: Anticonvulsant activity in Carworth Farm1 mouse assessed as protection against subcutaneous pentylenetetrazole-induced seizures at 100 mg/kg, ip after 30 mins. The class given is functional, organism-based.
Data set [6] relates to Mus musculus. Description: Anticonvulsant activity in Carworth Farm1 mouse assessed as protection against maximal electroshock-induced seizures at 100 mg/kg, ip administered 30 mins prior to 60-Hz current induction. Type of data set: functional, organism-based. In general terms: The maximal electroshock test induces tonic seizures with an electrical stimulus.
Data set [7] deals with Mus musculus. Description: Anticonvulsant activity in Carworth Farm1 mouse assessed as protection against maximal electroshock-induced seizures at 50 mg/kg, ip administered 30 mins prior to 60-Hz current induction. The class given is functional, organism-based.
In data set [8] the test system is Mus musculus. Briefly: Anticonvulsant activity in ip dosed Carworth Farm1 mouse assessed as protection against maximal electroshock-induced seizures administered 30 mins prior to 60-Hz current induction. The class given is functional.
Data set [9] concerns Mus musculus. Description: Anticonvulsant activity in ip dosed Carworth Farm1 mouse assessed as protection against subcutaneous pentylenetetrazole-induced seizures after 30 mins. Type of data set: functional. To be noted: Carworth Farm1, 0.5 h.
Data set [10] has as its system Mus musculus. Briefly: Anticonvulsant activity in Carworth Farm1 mouse assessed as protection against maximal electroshock-induced seizures at 100 to 400 mg/kg, ip administered 30 mins prior to 60-Hz current induction. The class given is functional, organism-based.
Data set [11] has as its system Mus musculus. Briefly: Anticonvulsant activity in Carworth Farm1 mouse assessed as protection against maximal electroshock-induced seizures at 400 mg/kg, ip administered 30 mins prior to 60-Hz current induction. The class given is functional, organism-based.
Data set [12] concerns Mus musculus. Description: Anticonvulsant activity in Carworth Farm1 mouse assessed as protection against subcutaneous pentylenetetrazole-induced seizures at 400 mg/kg, ip after 30 mins. Type of data set: functional, organism-based.
The nature of data set [13]: Metabolic stability in rat liver microsomes assessed as amount of parent compound remaining after 30 mins. Type of data set: ADME. To be noted: read-out: Stability. (Liver microsomes are vesicles of endoplasmic reticulum, rich in cytochrome P450 enzymes.)
In data set [14] the test system is Mus musculus. Briefly: Anticonvulsant activity in Carworth Farm1 mouse assessed as protection against maximal electroshock-induced seizures at 50 to 100 mg/kg, ip administered 30 mins prior to 60-Hz current induction. Type of data set: functional, organism-based.

Each structure is given as a SMILES string. Active and inactive are the calls of the source. No cut-off for these calls is given here. Where only a bound is given, the exact number is not on record here.

Take `O=S(=O)(c1cccc(Cl)c1)N1CCCC1`: the Activity result in the data set with Mus musculus [1], in the data set on Mus musculus [2] and in the data set with Mus musculus [3] was “Non-Toxic” each time.

Regarding `CN(C)S(=O)(=O)c1cccc(F)c1`, the Activity entry in the data set with Mus musculus [1], in the data set on Mus musculus [2] and with Mus musculus [3] was “Non-Toxic” each time. The result with Mus musculus [4], in the data set with Mus musculus [5], in the data set with Mus musculus [6] and in the data set with Mus musculus [7] was Active.

As to `CN(CCO)S(=O)(=O)c1cccc(Cl)c1`, the Activity entry in the data set with Mus musculus [1], in the data set on Mus musculus [2] and with Mus musculus [3] was “Non-Toxic” in each case.

For the molecule `CN(C)S(=O)(=O)c1cc(Cl)ccc1Cl`, the Activity entry with Mus musculus [1], with Mus musculus [2] and with Mus musculus [3] was “Non-Toxic” throughout.

For the molecule `CN(C)S(=O)(=O)c1cccc(N)c1`, the Activity entry in the data set with Mus musculus [1], with Mus musculus [2] and in the data set on Mus musculus [3] was “Non-Toxic” in each case.

As for `CN(C)S(=O)(=O)c1cccc(OC(F)(F)F)c1`, the Activity result with Mus musculus [1], in the data set on Mus musculus [2] and in the data set on Mus musculus [3] was “Non-Toxic” each time. Besides, the result in the data set with Mus musculus [6] was Active.

As to `CN(C)S(=O)(=O)c1cccc(C(F)(F)F)c1`, the Activity entry with Mus musculus [1], with Mus musculus [2] and with Mus musculus [3] was “Non-Toxic” in each case. Further, the result in the data set with Mus musculus [5] and with Mus musculus [6] was Active.

With `CN(C)S(=O)(=O)c1ccccc1`, the Activity entry in the data set on Mus musculus [1], in the data set with Mus musculus [2] and in the data set with Mus musculus [3] was “Non-Toxic” in each case. The outcome in the data set on Mus musculus [6] was Active.

Take `NS(=O)(=O)Cc1noc2ccccc12` [ZONISAMIDE]: the ED50 is 20 mg/kg with Mus musculus [8] and over 500 mg/kg in the data set with Mus musculus [9].

On to `CN(C)S(=O)(=O)c1ccccc1Cl`, for which the Activity entry in the data set on Mus musculus [1], with Mus musculus [2] and with Mus musculus [3] was “Non-Toxic” each time. The outcome with Mus musculus [10], in the data set with Mus musculus [11], with Mus musculus [6], in the data set with Mus musculus [7] and in the data set on Mus musculus [12] was Active.

In the case of `CN(C)S(=O)(=O)c1cccc(C#N)c1`, the Activity result in the data set on Mus musculus [1], in the data set on Mus musculus [2] and in the data set on Mus musculus [3] was “Non-Toxic” in each case. Further, the result with Mus musculus [6] and with Mus musculus [7] was Active.

`CNS(=O)(=O)c1cccc(Cl)c1`: the Activity result with Mus musculus [1], in the data set with Mus musculus [2] and in the data set with Mus musculus [3] was “Non-Toxic” throughout. For the same molecule, the result in the data set on Mus musculus [4], with Mus musculus [6], in the data set with Mus musculus [7] and with Mus musculus [12] was Active.

Consider `CN(C)S(=O)(=O)c1cccc(Cl)c1`, for which the Activity entry with Mus musculus [1], with Mus musculus [2] and with Mus musculus [3] was “Non-Toxic” in each case. Further, the outcome in the data set on Mus musculus [4], in the data set on Mus musculus [5], in the data set on Mus musculus [6], in the data set on Mus musculus [7] and in the data set on Mus musculus [12] was Active. Further, the ED50 with Mus musculus [8] worked out at 12 mg/kg; in the data set on Mus musculus [9] it was 34 mg/kg. Further, in [13], the remaining at 0.5 h was found to be 95%.

As to `CCN(CC)S(=O)(=O)c1cccc(Cl)c1`, the Activity entry with Mus musculus [1], with Mus musculus [2] and in the data set on Mus musculus [3] was “Non-Toxic” each time. Besides, the outcome in the data set with Mus musculus [6], in the data set with Mus musculus [7] and with Mus musculus [12] was Active.

For `CN(C)S(=O)(=O)c1ccc(Cl)c(Cl)c1`, the Activity result with Mus musculus [1], in the data set with Mus musculus [2] and with Mus musculus [3] was “Non-Toxic” each time. Also, the result with Mus musculus [6] was Active.

Consider `CN(C)S(=O)(=O)c1cccc(Oc2ccccc2)c1`, for which the Activity entry in the data set on Mus musculus [1], in the data set with Mus musculus [2] and with Mus musculus [3] was “Non-Toxic” in each case.

In the case of `NS(=O)(=O)c1cccc(Cl)c1`, the Activity entry in the data set on Mus musculus [1], in the data set on Mus musculus [2] and with Mus musculus [3] was “Non-Toxic” in each case. Also, the result in the data set on Mus musculus [4], in the data set on Mus musculus [6] and with Mus musculus [7] was Active.

Consider `CC1(C)O[C@@H]2[C@@H](CO[C@@]3(COS(N)(=O)=O)OC(C)(C)O[C@@H]23)O1` [TOPIRAMATE], for which the ED50 is 33 mg/kg with Mus musculus [8] and over 800 mg/kg in the data set on Mus musculus [9].

For `CN(C)S(=O)(=O)c1cccc(Br)c1`, the Activity result with Mus musculus [1], in the data set on Mus musculus [2] and in the data set on Mus musculus [3] was “Non-Toxic” throughout. In addition, the outcome in the data set on Mus musculus [6] and with Mus musculus [7] was Active.

In the case of `CCCN(C)S(=O)(=O)c1cccc(Cl)c1`, the Activity result in the data set with Mus musculus [1], with Mus musculus [2] and with Mus musculus [3] was “Non-Toxic” throughout.

As for `CN(C)S(=O)(=O)c1ccc(Cl)cc1`, the Activity result in the data set with Mus musculus [1], in the data set on Mus musculus [2] and in the data set on Mus musculus [3] was “Non-Toxic” in each case. Besides, the outcome in the data set with Mus musculus [4], in the data set on Mus musculus [6], with Mus musculus [7] and in the data set with Mus musculus [12] was Active.

As for `CN(C)S(=O)(=O)c1cc(Cl)cc(Cl)c1`, the Activity result in the data set on Mus musculus [1], in the data set with Mus musculus [2] and with Mus musculus [3] was “Non-Toxic” in each case. For the same molecule, in the data set on Mus musculus [6], the result was Active.

On to `Cc1cccc(S(=O)(=O)N(C)C)c1`, for which the Activity result with Mus musculus [1], in the data set with Mus musculus [2] and in the data set with Mus musculus [3] was “Non-Toxic” in each case.

For the molecule `CCNC(=O)C1=C(Cl)c2ccccc2S(=O)(=O)N1C`, the result with Mus musculus [14] was Active.

With `CN(C)S(=O)(=O)c1cccc([N+](=O)[O-])c1`, the Activity entry in the data set with Mus musculus [1], in the data set with Mus musculus [2] and in the data set on Mus musculus [3] was “Non-Toxic” throughout. Moreover, the outcome in the data set with Mus musculus [6] was Active.

In the case of `COc1cccc(S(=O)(=O)N(C)C)c1`, the Activity entry with Mus musculus [1], in the data set on Mus musculus [2] and in the data set with Mus musculus [3] was “Non-Toxic” each time.

As to `CNS(=O)(=O)Cc1cccc(Cl)c1`, the Activity entry in the data set on Mus musculus [1], in the data set on Mus musculus [2] and in the data set on Mus musculus [3] was “Non-Toxic” each time.
